{"source": "patent US9462807B2", "about": "“Difenoconazole sterepospmeric composition with reduced phytotoxicity” (Syngenta Participations AG, priority 2013, dated 2016)", "system": "Wheat (variety \"Riband\")", "experiment": "Phytotoxicity on pot-grown wheat after track-sprayer application", "type": "in vivo", "details": "versus 2S,4R (Ia), 2R,4R (Ic) and 2S,4S (Id)", "description": "Wheat seeds (variety “Riband”) were sown in 6.5 cm diameter pots with typically 6 seeds per pot. The growing media comprised 66.5% TKS1 peat soil, 30% sugar beet soil and 3.5% sand. The seeds were covered with a fine layer of soil and the pots were watered. Within a day of sowing the pots were treated with 5 mL of a solution of the growth regulator trinexapac-ethyl (Moddus 250 EC™ from Syngenta) diluted 1 part in 1000 parts water. The pots were kept in a controlled environment room at 19° C. constant temperature, 60% relative humidity and a 14 hour day length until test treatment at which time the plants were around 3 weeks old. Plant density was reduced to typically 4 plants per pot prior to application of the test treatments.\nThe difenoconazole formulations were mixed with water and ultrasonically agitated in order to achieve a homogeneous emulsion. Spray solutions were then made with 9 parts water to 1 part isopropanol by volume. The test treatments were applied using a track-sprayer with a single flat-fan nozzle at a height of 60 cm and calibrated to apply the equivalent of 200 litres per hectare.\nThe symptoms of phytotoxicity on wheat caused by difenoconazole included chlorosis and/or necrosis.\nTest wheat plants were grown and the formulations applied as for Example 3. […]"}
{"compound": "C[C@H]1CO[C@](Cn2cncn2)(c2ccc(Oc3ccc(Cl)cc3)cc2Cl)O1", "note": "[Ib]", "values": [{"measurement": "Phytotoxic damage to wheat compared with the other stereoisomers", "value": "less phytotoxic damage"}]}
